Laboratory results taken from PubChem BioAssay AID330 (DTP/NCI, 2004).
“And” between values parts separate entries of the source, which are not always exact repeats. Identical values can stand only once. Inconclusive results and toxic doses are left out. How the source made its calls: active means survival T/C of 150% or more; inactive means T/C below 125% in these data.

System: P388 leukemia ip, CD2F1 mice, survival T/C
Test: NCI In Vivo Anticancer Drug Screen. Data for tumor model P388 Leukemia (intraperitoneal) in CD2F1 (CDF1) mice
Details: endpoint: median survival time, higher = longer survival
Procedure, shortened: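 Mice carrying the transplanted tumor received test compound or vehicle. Survival was recorded in each group, and the value is the treated-group measurement divided by that of the vehicle-treated control group.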

[1] = dose: 100.0 mg/kg/injection, schedule: Q04DX003 (ip), vehicle: saline with Tween-80
[2] = dose: 200.0 mg/kg/injection, schedule: Q04DX003 (ip), vehicle: saline with Tween-80
[3] = dose: 50.0 mg/kg/injection, schedule: Q01DX009 (ip), vehicle: saline
[4] = dose: 100.0 mg/kg/injection, schedule: Q01DX009 (ip), vehicle: saline
[5] = dose: 200.0 mg/kg/injection, schedule: Q01DX009 (ip), vehicle: saline
[6] = dose: 60.0 mg/kg/injection, schedule: Q01DX005 (ip), vehicle: saline with Tween-80
[7] = dose: 120.0 mg/kg/injection, schedule: Q01DX005 (ip), vehicle: saline with Tween-80
[8] = dose: 240.0 mg/kg/injection, schedule: Q01DX005 (ip), vehicle: saline with Tween-80
[9] = dose: 50.0 mg/kg/injection, schedule: Q01DX005 (ip), vehicle: Klucel (hydroxypropylcellulose) (HPC)
[10] = dose: 100.0 mg/kg/injection, schedule: Q01DX005 (ip), vehicle: Klucel (hydroxypropylcellulose) (HPC)
[11] = dose: 200.0 mg/kg/injection, schedule: Q01DX005 (ip), vehicle: Klucel (hydroxypropylcellulose) (HPC)
[12] = dose: 50.0 mg/kg/injection, schedule: Q01DX005 (ip), vehicle: saline with Tween-80
[13] = dose: 100.0 mg/kg/injection, schedule: Q01DX005 (ip), vehicle: saline with Tween-80
[14] = dose: 200.0 mg/kg/injection, schedule: Q01DX005 (ip), vehicle: saline with Tween-80
[15] = dose: 100.0 mg/kg/injection, schedule: Q01DX009 (ip), vehicle: saline with Tween-80
[16] = dose: 200.0 mg/kg/injection, schedule: Q01DX009 (ip), vehicle: saline with Tween-80
[17] = dose: 400.0 mg/kg/injection, schedule: Q01DX009 (ip), vehicle: saline with Tween-80
[18] = dose: 50.0 mg/kg/injection, schedule: Q01DX009 (ip), vehicle: saline with Tween-80

Measured: T/C

COC(=O)C(C)c1[nH]c2ccccc2c1[Se]c1ccccc1 (stereo unspecified)
inactive: dose: 100.0 mg/kg/injection, schedule: Q01DX001 (ip), vehicle: saline with Tween-80 102 % of control | dose: 200.0 mg/kg/injection, schedule: Q01DX001 (ip), vehicle: saline with Tween-80 106 % of control | dose: 400.0 mg/kg/injection, schedule: Q01DX001 (ip), vehicle: saline with Tween-80 94 % of control

Cc1ccc(C)c(C(O)C2CC2)c1 (stereo unspecified)
inactive: [1] 100 % of control | [2] 104 % of control

CC(=O)OCC1OC([n+]2cccc(C(N)=O)c2)C(OC(C)=O)C(OC(C)=O)C1OC(C)=O (stereo unspecified)
inactive: dose: 25.0 mg/kg/injection, schedule: Q01DX009 (ip), vehicle: saline 100 % of control | [3] 101 % of control | [4] 100 % of control | [5] 103 % of control

CC1=NC(C)(COC(=O)C2(C)NC(C)(CO)CO2)COC1=O (stereo unspecified)
inactive: dose: 60.0 mg/kg/injection, schedule: Q01DX005 (ip), vehicle: saline 105 % of control | dose: 120.0 mg/kg/injection, schedule: Q01DX005 (ip), vehicle: saline 97 % of control | dose: 240.0 mg/kg/injection, schedule: Q01DX005 (ip), vehicle: saline 97 % of control

CCOc1nc(N)nc(C)c1N=Nc1ccc(C)cc1
inactive: dose: 60.0 mg/kg/injection, schedule: Q01DX005 (ip), vehicle: Klucel + Tween-80 110 % of control | dose: 120.0 mg/kg/injection, schedule: Q01DX005 (ip), vehicle: Klucel + Tween-80 116 % of control | dose: 240.0 mg/kg/injection, schedule: Q01DX005 (ip), vehicle: Klucel + Tween-80 113 % of control

[O-]/[N+]1=[N+](\[O-])c2ccccc2CCc2ccccc21
inactive: [6] 100 % of control | [7] 102 % of control | [8] 105 % of control

CCCCCCCC/C=C\CCCCCCCCN1CC(C(=O)[O][Pb]([CH2]C)([CH2]C)[CH2]C)CC1=O (stereo unspecified)
inactive: dose: 0.75 mg/kg/injection, schedule: Q01DX009 (ip), vehicle: saline with Tween-80 105 % of control | dose: 1.5 mg/kg/injection, schedule: Q01DX009 (ip), vehicle: saline with Tween-80 105 % of control | dose: 6.0 mg/kg/injection, schedule: Q01DX009 (ip), vehicle: saline with Tween-80 115 % of control

C[As+](C)(C)CC(=O)O
inactive: [3] 99 % of control | [4] 99 % of control | [5] 101 % of control

Cc1ccc(C2=CSC3=NCCN23)cc1Cl
inactive: dose: 12.5 mg/kg/injection, schedule: Q01DX005 (ip), vehicle: Klucel (hydroxypropylcellulose) (HPC) 99 % of control | dose: 25.0 mg/kg/injection, schedule: Q01DX005 (ip), vehicle: Klucel (hydroxypropylcellulose) (HPC) 101 % of control | [9] 107 % of control

COc1ccccc1/C=C1/C(=O)N(c2ccc([N+](=O)[O-])cc2)N=C1C
inactive: [9] 102 % of control | [10] 103 % of control | [11] 101 % of control

O[P+]1(c2ccccc2)OC(C(F)(F)F)(C(F)(F)F)C(C(F)(F)F)(C(F)(F)F)O1
inactive: [3] 108 % of control | [4] 99 % of control | [5] 107 % of control

CC(C)C(=O)CC(c1ccccc1)P(=O)(c1ccccc1)c1ccccc1 (stereo unspecified)
inactive: [9] 102 % of control | [10] 103 % of control | [11] 103 % of control

CC(=O)OCc1c([O-])on[n+]1-c1ccccc1
inactive: [9] 100 % of control | [10] 102 % of control | [11] 102 % of control

CCOC(=O)c1c[nH]c2c(OC)ccc(OC)c2c1=O
inactive: [12] 99 % of control | [13] 100 % of control | [14] 100 % of control

O=C(N[C@H](CO)[C@H]1CC(Br)=NO1)C(Cl)(Cl)Cl
inactive: dose: 11.25 mg/kg/injection, schedule: Q01DX005 (ip), vehicle: distilled water + Tween-80 102 % of control | dose: 22.5 mg/kg/injection, schedule: Q01DX005 (ip), vehicle: distilled water + Tween-80 105 % of control | dose: 45.0 mg/kg/injection, schedule: Q01DX005 (ip), vehicle: distilled water + Tween-80 107 % of control | dose: 90.0 mg/kg/injection, schedule: Q01DX005 (ip), vehicle: distilled water + Tween-80 112 % of control

Nc1ncnc2c1ncn2CC(O)CCl (stereo unspecified)
inactive: [9] 100 % of control | [10] 99 % of control | [11] 100 % of control

COc1cccc2c1C(=O)c1c(O)c3c(c(O)c1C2=O)CC(O)(C(C)=O)CC3OC1CC(NC2CCCCC2)C(O)C(C)O1 (stereo unspecified)
inactive: dose: 6.25 mg/kg/injection, schedule: Q04DX003 (ip), vehicle: distilled water + Tween-80 100 % of control | dose: 12.5 mg/kg/injection, schedule: Q04DX003 (ip), vehicle: distilled water + Tween-80 104 % of control | dose: 25.0 mg/kg/injection, schedule: Q04DX003 (ip), vehicle: distilled water + Tween-80 102 % of control | dose: 50.0 mg/kg/injection, schedule: Q04DX003 (ip), vehicle: distilled water + Tween-80 102 % of control | dose: 100.0 mg/kg/injection, schedule: Q04DX003 (ip), vehicle: distilled water + Tween-80 104 % of control | dose: 200.0 mg/kg/injection, schedule: Q04DX003 (ip), vehicle: distilled water + Tween-80 108 % of control

COc1cccc2c1OC(=O)C(S(=O)(=O)c1ccccc1)C2 (stereo unspecified)
inactive: [12] 97 % of control | [13] 104 % of control | [14] 101 % of control

OCc1ccc(OCc2ccccc2)c(OCc2ccccc2)c1
inactive: dose: 50.0 mg/kg/injection, schedule: Q04DX003 (ip), vehicle: saline 98 % of control | dose: 100.0 mg/kg/injection, schedule: Q04DX003 (ip), vehicle: saline 98 % of control | dose: 200.0 mg/kg/injection, schedule: Q04DX003 (ip), vehicle: saline 104 % of control | dose: 400.0 mg/kg/injection, schedule: Q04DX003 (ip), vehicle: saline 98 % of control

S=C(Oc1ccccc1)SSC(=S)Oc1ccccc1
inactive: dose: 25.0 mg/kg/injection, schedule: Q04DX003 (ip), vehicle: saline with Tween-80 114 % of control | dose: 50.0 mg/kg/injection, schedule: Q04DX003 (ip), vehicle: saline with Tween-80 104 % of control | dose: 100.0 mg/kg/injection, schedule: Q04DX003 (ip), vehicle: DMSO 90 % of control | [1] 96 % of control | [2] 107 % of control

O=C(/C=C/c1ccccc1)Oc1cc([N+](=O)[O-])cc([N+](=O)[O-])c1
inactive: dose: 100.0 mg/kg/injection, schedule: Q04DX002 (ip), vehicle: saline with Tween-80 112 % of control | dose: 200.0 mg/kg/injection, schedule: Q04DX002 (ip), vehicle: saline with Tween-80 105 % of control

NC(Cc1cccs1)C(=O)O (stereo unspecified)
inactive: [15] 100 % of control | [1] 109 % of control | [16] 100 % of control | [2] 100 % of control | [17] 100 % of control | dose: 400.0 mg/kg/injection, schedule: Q04DX003 (ip), vehicle: saline with Tween-80 100 % of control

O=c1[nH]ncc(=S)[nH]1
inactive: dose: 25.0 mg/kg/injection, schedule: Q01DX009 (ip), vehicle: suspension in saline 90 % of control | dose: 50.0 mg/kg/injection, schedule: Q01DX009 (ip), vehicle: suspension in saline 103 % of control | dose: 100.0 mg/kg/injection, schedule: Q01DX009 (ip), vehicle: suspension in saline 87 % of control

CC1CCC(C(C)C)C(NC(=O)c2cc[n+](C)cc2)C1 (stereo unspecified)
inactive: [9] 100 % of control | [10] 108 % of control

CN1[C@H]2C=CC(=O)[C@]1(Cl)[C@H]1C(=O)N(c3ccccc3)C(=O)[C@@H]21
inactive: dose: 25.0 mg/kg/injection, schedule: Q01DX005 (ip), vehicle: saline with Tween-80 106 % of control | [12] 109 % of control | [13] 105 % of control | [14] 118 % of control

CSCC1(CCO)OCCO1
inactive: dose: 25.0 mg/kg/injection, schedule: Q01DX009 (ip), vehicle: saline with Tween-80 100 % of control | [18] 94 % of control | [15] 94 % of control

O=C1CCC(=O)N(CNc2cccc(Cc3cccc(NCN4CC(=O)CCC4=O)c3)c2)C1
inactive: [6] 91 % of control | [7] 91 % of control | [8] 89 % of control

CCOC(=O)c1cc([N+](=O)[O-])c[nH]1
inactive: [18] 97 % of control | [15] 96 % of control | [16] 95 % of control | [17] 89 % of control

CN1CCC(O)(C(=O)c2ccccc2)CC1
inactive: dose: 100.0 mg/kg/injection, schedule: Q04DX002 (ip), vehicle: saline 99 % of control and 104 % of control | dose: 200.0 mg/kg/injection, schedule: Q04DX002 (ip), vehicle: saline 103 % of control
